In patent US20260234165A1, “MACROCYCLIC COMPOUNDS, PREPARATION METHOD THEREFOR, AND USE THEREOF” (GENFLEET THERAPEUTICS (SHANGHAI) INC., priority 2004, published 2026):
Counter-ions that a name gives are not always drawn. Like-named read-outs stand apart in the source and are kept apart here.

Assays:
Assay type in all cases: cell-based, human
[1] = system: AsPC-1 cells (KRAS G12D mutation); assay: 3D cell proliferation assay (CellTiter Glo-3D), AsPC-1; conditions: medium with 2% FBS, read-out: AsPC-1 AP IC50
Excerpt: (§1) MIA PaCa-2 cells were purchased from ATCC, Cat. No. CRL-1420; AsPC-1 cells were purchased from ATCC, Cat. No. CRL-1682; NCI-H441 cells were purchased from ATCC, Cat. No. HTB-174: NCI-H1975 cells were purchased from ATCC. Cat. No. CRL-5908; DMEM medium was purchased from Gibco, Cat. No. 11995-065: RPMI-1040 medium was purchased from Gibco. Cat. No. H 18754093; FBS was purchased from Gibco, Cat. No. 10099-141C. penicillin, streptomycin double-antibiotic solution (PS) was purchased from Gibco, Cat. No. 15140-122; Horse serum was purchased from Gibco. Cat. No. 16050130: trypsin (containing EDTA) was purchased from Gibco, Cat. No. 25200-072; DMSO was purchased from VWRAMRESCO, Cat. No. 0231-500ML; 384-well cell culture plates were purchased from Corning, Cat. No. 3830; white-bottomed, opaque 384-well assay plates were purchased from Corning, Cat. No. 3570. CellTiter Glo-3D) kit was purchased from Promega. Cat. No. G9683; cell counter was purchased from CHEMOMETEC, model: NC-200: microplate reader was purchased from PerkinElmer, model: EnVision.
(§2) MIA PaCa-2, a human pancreatic cancer cell strain endogenously containing a KRAS^G12C mutation, was cultured in a complete medium containing DMEM+10% FBS+2.5% Horse serum+1% PS. AsPC-1, a human pancreatic cancer cell strain endogenously containing a […] mutation, was cultured in a complete medium containing RPMI-1640+10% FBS+1% PS. NCI-H441 cells, a human lung cancer cell strain endogenously containing a […] mutation, were cultured in a complete medium containing RPMI-1640+10% FBS+1% PS. NCI-H1975, a KRAS wild-type human lung cancer cell strain whose cell proliferation depends on KRAS activity, was cultured in a complete medium containing RPMI-1640+10% FBS+1% PS.
(§3) The cells were digested with trypsin (containing EDTA), collected in their respective low-serum complete media containing 2% FBS (for MIA Paca-2 cell culture: DMEM+2% FBS+0.5% Horse serum+1% PS), and counted. After the cell density was adjusted as required, 200 MIA PaCa-2 cells, 800 AsPC-1 cells, 800 NCI-H441 cells, or 400 NCI-H1975 cells per well were seeded into a 384-well cell culture plate, with the volume of the medium in each well being 45 μL. The cell culture plate was incubated in an incubator at 37° C. with 5% CO2, overnight. A series of 3.16-fold gradient dilutions of a 1000× compound stock solution were prepared with DMSO, and then diluted 100-fold with the complete medium containing 2% FBS described above to give 10- compound stock solutions. On the day after cell seeding, 5 μL of the 10- compound stock solution was added to each cell culture well. As a result, the final concentration of the compound in the cell culture well became 1×, and the DMSO content in the well was 0.1%. In addition to the compound-treated wells described above, cell-containing DMSO control wells (with 5 μL of the complete medium containing 1% DMSO added to each well) and cell-free medium control wells (containing 50 μL of the complete medium with 2% FBS) were also set. The culture plate was incubated in an incubator at 37° C. with 5% CO2 for another 5 days, and then 30 μL of CellTiter-Glo working solution was added to each well. The mixture was well mixed, incubated for 30 min, left to stand at room temperature for 30 min, and then transferred to a white-bottomed, opaque 384-well assay plate at 40 μL/well. The chemiluminescence values (RLU) were measured using a microplate reader, and the cell proliferation inhibition rate for each well was calculated: IR (%)=(RLUDMSO—RLUcompound)/(RLUDMSO−RLUblank)×100%, where RLUDMSO is the average RLU signal value from the DMSO control well samples, RLUblank is the average RLU signal value from the medium control well samples, and RLUcompound is the RLU signal value from the compound-treated well samples. […]

NCI-H441 cells = assay: 3D cell proliferation assay (CellTiter Glo-3D), NCI-H441; conditions: medium with 2% FBS, read-out: H441 AP IC50
Excerpt: as §1, §2, §3

[2] = system: p-ERK in NCI-H441 cells (KRAS G12V mutation); assay: Cell p-ERK assay (HTRF) in NCI-H441 cells; conditions: NCI-H441 cells, 3 h compound incubation, HTRF p-ERK T202/Y204, read-out: H441 p-ERK IC50
Procedure, shortened: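 In this cellular format, endogenous KRAS-mutant lines grown in RPMI-1640 plus 10% FBS received graded compound concentrations for 3 h at 37 °C. Lysates were incubated 4 h with the phospho-T202/Y204 ERK HTRF antibody pair, and percent inhibition relative to DMSO and blank wells was curve-fitted to give IC50.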

[3] = system: p-ERK in AsPC-1 cells (KRAS G12D mutation); assay: Cell p-ERK assay (HTRF) in AsPC-1 cells; conditions: AsPC-1 cells, 3 h compound incubation, HTRF p-ERK T202/Y204, read-out: AsPC-1 p-ERK IC50
Protocol: AsPC-1 cells were purchased from ATCC, Cat. No. CRL-1682: NCI-H441 cells were purchased from ATCC, Cat. No. HTB-174: RPMI-1640 medium was purchased from Gibco, Cat. No. I1875-093: FBS was purchased from Gibco, Cat. No. 10099-141C: penicillin/streptomycin double-antibiotic solution (PS) was purchased from Gibco, Cat. No. 15140-122: trypsin (containing EDTA) was purchased from Gibco, Cat. No. 25200-072; DMSO was purchased from VWRAMRESCO, Cat. No. 0231-500ML; 96-well cell culture plates were purchased from Corning, Cat. No. 3599: white-bottomed, opaque 96-well plates were purchased from Cisbio, Cat. No. 66PL96025; Advance ERK phospho-T202/Y204 kit was purchased from Cisbio, Cat. No. 64AERPEH; cell counter was purchased from CHEMOMETEC, model: NC-200; microplate reader was purchased from PerkinElmer, model: EnVision.
AsPC-1, a human pancreatic cancer cell strain endogenously containing a KRAS^G12D mutation, was cultured in a complete medium containing RPMI-1640+10% FBS+1% PS. NCI-H441, a human non-small cell lung cancer cell strain endogenously containing a KRAS^G12V mutation, was cultured in a complete medium containing RPMI-1640+10% FBS+1% PS.
The cells were digested with trypsin (containing EDTA), collected in their corresponding complete media, and counted. The density of the cell suspensions was adjusted with their corresponding complete media, and 10000 AsPC-1 cells or 20000 NCI-H441 cells per well were seeded into a 96-well cell culture plate, with the volume of the medium in each well being 80 μL.
The cell culture plate was incubated in an incubator at 37° C. with 5% CO2 overnight. A series of 3.16-fold gradient dilutions of a 1000- compound stock solution were prepared with DMSO, and then diluted 200-fold with the complete medium described above to give 5′ compound stock solutions. On the day after cell seeding, 20 μL of the 5× compound stock solution was added to each cell culture well. As a result, the final concentration of the compound in the cell culture well became 1×, and the DMSO content in the well was 0.1%. In addition to the compound-treated wells described above, cell-containing DMSO control wells were also set. A complete medium containing 0.5% DMSO was added at 20 μL/well. After the mixture was well mixed, the culture plate was incubated in the incubator at 37° C. with 5% CO2 for another 3 h. The medium was then removed from the culture wells, and 50 μL of cell lysis buffer (from Advance ERK phospho-T202,Y204 kit) was added to each well. The mixture was well mixed and incubated for 30 min. Then, 16 μL of the mixture was transferred to a white-bottomed, opaque 96-well assay plate, and separately, 16 μL of cell lysis buffer was added to additional wells (serving as blank wells) in the assay plate. After the transfer was completed, 4 μL of p-ERK HTRF antibody mixture (from Advance ERK phospho-T202/Y204 kit) was added to each well of the assay plate, followed by a 4-hour incubation. The HTRF signal values (RLU) were then measured using a microplate reader, and the inhibition rate of the compound against p-ERK levels was calculated as follows: IR (%)=(RLUDMSO−RLUcompound)/(RLUDMSO−RLUblank)×100%, where RLUDMSO is the average HTRF signal value from the DMSO control well samples, RLUblank is the average HTRF signal value from the blank well samples, and RLUcompound is the HTRF signal value from the compound-treated well samples. Using an XLfit software, the IR (%) values were plotted against the logarithm of the compound concentrations, and the dose-response curves were fitted using the four-parameter method to calculate the IC50 values.

[4] = 3D cell proliferation (CellTiter Glo-3D)
[5] = Homo sapiens, NCI-H441, 3D cell proliferation (CellTiter Glo-3D)

Row | IC50 (NCI-H441 cells; [4]) [nM] | IC50 (NCI-H441 cells; [5]) [nM] | IC50 ([2]; Homo sapiens, NCI-H441, 3 h) [nM] | IC50 ([3]; Homo sapiens, ASPC1, 3 h) [nM] | Molecule | also measured
1 | 399 |  |  |  | CCn1c(-c2cc(N3CCN(C)CC3)cnc2[C@H](C)OC)c2c3cc(ccc31)-c1csc(n1)C[C@H](Nc1ccccn1)C(=O)N1CCC[C@H](N1)C(=O)OCC(C)(C)C2 (atropisomer, axis not shown; (Ra)) [Compound Z69, (6^3S,Z)-1^1-ethyl-(Ra)-1^2-(2-((S)-1-methoxyethyl)-5-(4-methylpiperazin-1-yl)pyridin-3-yl)-10,10-dimethyl-4-(pyridin-2-ylamino)-6^1,6^2,6^3,6^4,6^5,6^6-hexahydro-1^1H-8-oxa-2(4,2)-thiazola-1(5,3)-indola-6(1,3)-pyridazinacycloundecaphane-5,7-dione] | IC50 [1, 4]: 347 nM
2 |  | 344 |  |  | CCn1c(-c2cc(N3CCN(C)CC3)cnc2[C@H](C)OC)c2c3cc(ccc31)-c1csc(n1)C[C@H](NC1CCN(C)C1=O)C(=O)N1CCC[C@H](N1)C(=O)OCC(C)(C)C2 (atropisomer, axis not shown; (Ra)) [Compound Z70, (6^3S,4S,Z)-1^1-ethyl-(Ra)-1^2-(2-((S)-1-methoxyethyl)-5-(4-methylpiperazin-1-yl)pyridin-3-yl)-10,10-dimethyl-4-((1-methyl-2-oxopyrrolidin-3-yl)amino)-6^1,6^2,6^3,6^4,6^5,6^6-hexahydro-1^1H-8-oxa-2(4,2)-thiazola-1(5,3)-indola-6(1,3)-pyridazinacycloundecaphane-5,7-dione formate] | IC50 ([1]; Homo sapiens, ASPC1, 3D cell proliferation (CellTiter Glo-3D)): 416 nM
3 |  | 27.6 | 26.1 | 92 | CCn1c(-c2cc(N3CCN(C)CC3)cnc2[C@H](C)OC)c2c3cc(ccc31)-c1csc(n1)C[C@H](Nc1cccnn1)C(=O)N1CCC[C@H](N1)C(=O)OCC(C)(C)C2 (atropisomer, axis not shown; (Ra)) [Compound Z457, (6^3S,4S,Z)-1^1-ethyl-(Ra)-1^2-(2-((S)-1-methoxyethyl)-5-(4-methylpiperazin-1-yl)pyridin-3-yl)-10,10-dimethyl-4-(pyridazin-3-ylamino)-6^1,6^2,6^3,6^4,6^5,6^6-hexahydro-1^1H-8-oxa-2(4,2)-thiazola-1(5,3)-indola-6(1,3)-pyridazinacycloundecaphane-5,7-dione] | 
4 |  | 58.4 | 28.2 | 69 | CCn1c(-c2cc(N3CCN4CC5(CC5)OC[C@@H]4C3)cnc2[C@H](C)OC)c2c3cc(ccc31)-c1csc(n1)C[C@H](NC(=O)[C@H]1[C@H](C)[C@@H]1C)C(=O)N1CCC[C@H](N1)C(=O)OCC1(CCC1)C2 [Compound Z467, (1r,2R,3S)—N-((3′S,4′S,Z)-1′-ethyl-2′-(2-((S)-1-methoxyethyl)-5-((S)-tetrabydro-4H-spiro[cyclopropane-1,3′-pyrazino[2,1-c][1,4]oxazin]-8′(1′H)-yl)pyridin-3-yl)-5′,7′-dioxospiro[cyclobutane-1,10′-8-oxa-2(4,2)-thiazola-1(5,3)-indola-6(1,3)-pyridazinacycloundecaphan]-4′-yl)-2,3-dimethylcyclopropane-1-carboxamide] | 
5 | 54.7 |  |  |  | (2R)—N-(5-((6^3S,4S,Z)-4-((1r, 2R,3S)-2,3-dimethylcyclopropane-1-carboxamido)-1^1-ethyl-10,10-dimethyl-5,7-dioxo-6^1,6^2,6^3,6^4,6^5,6^6-hexahydro-1^1H-8-oxa-2(4,2)-thiazola-1(5,3)-indola-6(1,3)-pyridazinacycloundecaphane-2-yl)-6-((S)-1-methoxyethyl)pyridin-3-yl)-N,1-dimethylazepane-2-carboxamide [Compound Z355] | IC50 [2]: 45.7 nM; IC50 [3]: 109 nM
